Reference: patent publication US12583858B2 (Genentech, Inc., priority 2015, dated 2026)

target: T1, TDO2 (Homo sapiens, UniProt P48775); test: TDO2 cell assay (NFK GreenScreen, SW48 cells); assay type: cell-based; settings: SW48 cells (high TDO expressing), 200 uM tryptophan, 24 hours; Table 3; read-out: TDO2 Cell Fluor EC50
T1 construct: decreased levels of NFK in SW48 cells (high TDO expressing cells)
T1 sequence (P48775 whole entry): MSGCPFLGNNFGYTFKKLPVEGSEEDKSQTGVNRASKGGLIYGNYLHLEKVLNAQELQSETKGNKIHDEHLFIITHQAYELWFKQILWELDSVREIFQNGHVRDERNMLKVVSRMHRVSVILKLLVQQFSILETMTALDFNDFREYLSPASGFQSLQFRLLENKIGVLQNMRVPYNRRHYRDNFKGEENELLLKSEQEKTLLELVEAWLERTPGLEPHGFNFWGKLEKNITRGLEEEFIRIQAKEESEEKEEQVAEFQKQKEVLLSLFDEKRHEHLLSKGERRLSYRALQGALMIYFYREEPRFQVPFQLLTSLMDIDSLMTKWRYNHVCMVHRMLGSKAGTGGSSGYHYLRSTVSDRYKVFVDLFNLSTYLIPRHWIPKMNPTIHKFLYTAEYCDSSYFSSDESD

| Compound | EC50 |
| --- | --- |
| O[C@H]1c2cccnc2CC[C@H]1[C@H]1c2ccccc2-c2cncn21 [Example 31h, (5R,6S)-6-((S)-5H-imidazo[5,1-a]isoindol-5-yl)-5,6,7,8-tetrahydroquinolin-5-ol] | 0.12 µM |
| N[C@@H]1COC[C@@H]1[C@H]1c2ccccc2-c2cncn21 [Example 32d, (3S,4S)-4-[(5S)-5H-imidazo[4,3-a]isoindol-5-yl]oxolan-3-amine] | > 25 µM |
| O[C@@H]1CCOC[C@H]1[C@@H]1c2ccc(F)cc2-c2cncn21 [Example 34d, (3R,4R)-3-((R)-8-fluoro-5H-imidazo[5,1-a]isoindol-5-yl)-tetrahydro-2H-pyran-4-ol] | 0.23 µM |
| NS(=O)(=O)N1CC[C@@H]([C@H]2c3ccccc3-c3cncn32)[C@H](O)C1 [Example 39a, (3S,4S)-3-hydroxy-4-((S)-5H-imidazo[5,1-a]isoindol-5-yl)piperidine-1-sulfonamide] | > 25 µM |
| C[C@@H](O)[C@@H]1c2ccccc2-c2cncn21 [Example 42a, (R)-1-((S)-5H-imidazo[5,1-a]isoindol-5-yl)ethan-1-ol] | > 25 µM |
| C[C@@H](O)[C@H]1c2ccccc2-c2cncn21 [Example 42b, (R)-1-((R)-5H-imidazo[5,1-a]isoindol-5-yl)ethan-1-ol] | 11.8 µM |
| C[C@H](O)[C@@H]1c2ccccc2-c2cncn21 [Example 42d, (S)-1-((S)-5H-imidazo[5,1-a]isoindol-5-yl)ethan-1-ol] | 23.7 µM |
| OC1(C2c3ccccc3-c3cncn32)CC(F)(F)C1 (stereo not shown) [Example 50, 3,3-difluoro-1-(5H-imidazo[5,1-a]isoindol-5-yl)cyclobutan-1-ol] | 2.6 µM |
| O[C@H]1c2ccnn2CC[C@@H]1[C@@H]1c2ccccc2-c2cncn21 [Example 56d, (4R,5R)-5-((R)-5H-imidazo[5,1-a]isoindol-5-yl)-4,5,6,7-tetrahydropyrazolo[1,5-a]pyridin-4-ol] | > 25 µM |
| O[C@H]1c2ccnn2CC[C@H]1[C@H]1c2ccccc2-c2cncn21 [Example 56e, (4R,5S)-5-((S)-5H-imidazo[5,1-a]isoindol-5-yl)-4,5,6,7-tetrahydropyrazolo[1,5-a]pyridin-4-ol] | 0.76 µM |
| NC(=O)c1ccc2c(c1)CC[C@@H]([C@H]1c3ccccc3-c3cncn31)[C@H]2O [Example 60f, (5R,6S)-5-hydroxy-6-((S)-5H-imidazo[5,1-a]isoindol-5-yl)-5,6,7,8-tetrahydronaphthalene-2-carboxamide] | 0.057 µM |
| O[C@H]1c2ncccc2CC[C@H]1[C@H]1c2ccccc2-c2cncn21 [Example 63c, (7S,8R)-7-((S)-5H-imidazo[5,1-a]isoindol-5-yl)-5,6,7,8-tetrahydroquinolin-8-ol] | 20 µM |
| CS(=O)(=O)N1CC[C@@H]([C@@H]2c3ccccc3-c3cncn32)[C@H](O)C1 [Example 64a, (3S,4S)-4-((R)-5H-imidazo[5,1-a]isoindol-5-yl)-1-(methylsulfonyl)piperidin-3-ol] | > 25 µM |
| CS(=O)(=O)N1CCC(C2c3ccccc3-c3cncn32)C(O)C1 [Example 64c, (3R,4R)-4-((R)-5H-imidazo[5,1-a]isoindol-5-yl)-1-(methylsulfonyl)piperidin-3-ol] | > 25 µM |
| CC1(C)COC[C@@H]([C@H]2c3ccccc3-c3cncn32)[C@H]1O [Example 66a, (4R,5R)-5-((S)-5H-imidazo[5,1-a]isoindol-5-yl)-3,3-dimethyltetrahydro-2H-pyran-4-ol] | > 25 µM |
| O[C@H]1[C@@H]([C@@H]2c3ccccc3-c3cncn32)CCC12CCOCC2 [Example 68a, (1S,2R)-2-((R)-5H-imidazo[5,1-a]isoindol-5-yl)-8-oxaspiro[4.5]decan-1-ol] | 6.8 µM |
| CNS(=O)(=O)N1CC[C@H]([C@H]2c3ccccc3-c3cncn32)[C@@H](O)C1 [Example 74a, (3R,4R)-3-hydroxy-4-((S)-5H-imidazo[5,1-a]isoindol-5-yl)-N-methylpiperidine-1-sulfonamide] | 4 µM |
| CNS(=O)(=O)N1CC[C@@H]([C@H]2c3ccccc3-c3cncn32)[C@H](O)C1 [Example 74b, (3S,4S)-3-hydroxy-4-((S)-5H-imidazo[5,1-a]isoindol-5-yl)-N-methylpiperidine-1-sulfonamide] | 0.11 µM |
| CN(C)S(=O)(=O)N1CC[C@@H]([C@H]2c3ccccc3-c3cncn32)[C@H](O)C1 [Example 78b] | 0.16 µM |
| CN1CC[C@H]([C@H]2c3ccccc3-c3cncn32)[C@@H](O)C1 [Example 83a, (3R,4R)-4-[(5S)-5H-imidazo[4,3-a]isoindol-5-yl]-1-methylpiperidin-3-ol] | > 25 µM |
| CN1CC[C@@H]([C@H]2c3ccccc3-c3cncn32)[C@H](O)C1 [Example 83b, (3S,4S)-4-((S)-5H-imidazo[5,1-a]isoindol-5-yl)-1-methylpiperidin-3-ol] | 1.4 µM |
| O[C@@H]1CC2(COC2)[C@H]1[C@@H]1c2ccccc2-c2cncn21 [Example 87b, (5S,6R)-5-((R)-5H-imidazo[5,1-a]isoindol-5-yl)-2-oxaspiro[3.3]heptan-6-ol] | 0.3 µM |
| O[C@@H]1c2ccccc2CC[C@H]1[C@H]1c2ccccc2-c2cncn21 [Example 102e, (1S,2S)-2-((S)-5H-imidazo[5,1-a]isoindol-5-yl)-1,2,3,4-tetrahydronaphthalen-1-ol] | 0.032 µM |
| O[C@H]1c2ccccc2CC[C@@H]1[C@@H]1c2ccccc2-c2cncn21 [Example 102f, (1R,2R)-2-((R)-5H-imidazo[5,1-a]isoindol-5-yl)-1,2,3,4-tetrahydronaphthalen-1-ol] | 5.4 µM |
| O[C@@H]1CN(C2COC2)CC[C@H]1[C@H]1c2ccccc2-c2cncn21 [Example 103, (3S,4S)-4-((S)-5H-imidazo[5,1-a]isoindol-5-yl)-1-(oxetan-3-yl)piperidin-3-ol] | 12 µM |
| N#Cc1ccc2c(c1)[C@H](O)[C@@H]([C@@H]1c3ccccc3-c3cncn31)CC2 [Example 113a, (7R,8R)-8-hydroxy-7-((R)-5H-imidazo[5,1-a]isoindol-5-yl)-5,6,7,8-tetrahydronaphthalene-2-carbonitrile] | 1 µM |
| CCS(=O)(=O)N1CCC2(CC1)C[C@@H]([C@@H]1c3ccccc3-c3cncn31)[C@@H]2O [Example 114b, (1S,2S)-7-(ethylsulfonyl)-2-((R)-5H-imidazo[5,1-a]isoindol-5-yl)-7-azaspiro[3.5]nonan-1-ol] | > 25 µM |
| O[C@H]1COCC[C@@H]1[C@@H]1c2c(F)cccc2-c2cncn21 [Example 120b, (3R,4R)-4-((R)-6-fluoro-5H-imidazo[5,1-a]isoindol-5-yl)tetrahydro-2H-pyran-3-ol] | > 25 µM |
| O[C@@H]1c2ncsc2CC[C@H]1[C@H]1c2ccccc2-c2cncn21 [Example 125b, (4S,5S)-5-((S)-5H-imidazo[5,1-a]isoindol-5-yl)-4,5,6,7-tetrahydrobenzo[d]thiazol-4-ol] | 0.067 µM |

The next lines start with the values.

| EC50 | Compound |
| --- | --- |
| 1.4 µM | O[C@H]1c2cccnc2CC[C@@H]1[C@H]1c2ccccc2-c2cncn21 [Example 31b, (5R,6R)-6-((S)-5H-imidazo[5,1-a]isoindol-5-yl)-5,6,7,8-tetrahydroquinolin-5-ol] |
| 1.8 µM | O[C@@H]1c2cccnc2CC[C@H]1[C@@H]1c2ccccc2-c2cncn21 [Example 31g, (5S,6S)-6-((R)-5H-imidazo[5,1-a]isoindol-5-yl)-5,6,7,8-tetrahydroquinolin-5-ol] |
| > 25 µM | N[C@@H]1COC[C@@H]1[C@@H]1c2ccccc2-c2cncn21 [Example 32a, (3S,4S)-4-[(5R)-5H-imidazo[4,3-a]isoindol-5-yl]oxolan-3-amine] |
| 11 µM | N[C@H]1COC[C@H]1[C@H]1c2ccccc2-c2cncn21 [Example 32b, (3R,4R)-4-[(5S)-5H-imidazo[4,3-a]isoindol-5-yl]oxolan-3-amine] |
| > 25 µM | O[C@@H]1c2ccnn2CC[C@@H]1[C@@H]1c2ccccc2-c2cncn21 [Example 56c, (4S,5R)-5-((R)-5H-imidazo[5,1-a]isoindol-5-yl)-4,5,6,7-tetrahydropyrazolo[1,5-a]pyridin-4-ol] |
| 11 µM | O[C@@H]1[C@@H]([C@H]2c3ccccc3-c3cncn32)CC12CCOCC2 [Example 57a, (1R,2R)-2-((S)-5H-imidazo[5,1-a]isoindol-5-yl)-7-oxaspiro[3.5]nonan-1-ol] |
| 0.95 µM | Cc1cc2c(cn1)[C@@H](O)[C@@H]([C@H]1c3ccccc3-c3cncn31)C2 [Example 59a, (6R,7S)-6-((S)-5H-imidazo[5,1-a]isoindol-5-yl)-3-methyl-6,7-dihydro-5H-cyclopenta[c]pyridin-7-ol] |
| 0.82 µM | Cc1cc2c(cn1)[C@H](O)[C@H]([C@@H]1c3ccccc3-c3cncn31)C2 [Example 59b, (6S,7R)-6-((R)-5H-imidazo[5,1-a]isoindol-5-yl)-3-methyl-6,7-dihydro-5H-cyclopenta[c]pyridin-7-ol] |
| 0.061 µM | O[C@@H]1c2ncccc2CC[C@H]1[C@H]1c2ccccc2-c2cncn21 [Example 63a, (7S,8S)-7-((S)-5H-imidazo[5,1-a]isoindol-5-yl)-5,6,7,8-tetrahydroquinolin-8-ol] |
| 4.5 µM | CN(C)S(=O)(=O)N1CC[C@H]([C@H]2c3ccccc3-c3cncn32)[C@@H](O)C1 [Example 78a] |
| 4.4 µM | O[C@H]1CN(CC(F)(F)F)CC[C@@H]1[C@H]1c2ccccc2-c2cncn21 [Example 82a, (3R,4R)-4-((S)-5H-imidazo[5,1-a]isoindol-5-yl)-1-(2,2,2-trifluoroethyl)piperidin-3-ol] |
| 0.33 µM | O[C@@H]1CN(CC(F)(F)F)CC[C@H]1[C@H]1c2ccccc2-c2cncn21 [Example 82b, (3S,4S)-4-((S)-5H-imidazo[5,1-a]isoindol-5-yl)-1-(2,2,2-trifluoroethyl)piperidin-3-ol] |
| > 25 µM | O[C@@H]1COCC[C@H]1[C@H]1c2c(F)cccc2-c2cncn21 [Example 120a, (3S,4S)-4-((S)-6-fluoro-5H-imidazo[5,1-a]isoindol-5-yl)tetrahydro-2H-pyran-3-ol] |
| > 25 µM | O[C@H]1c2ncsc2CC[C@@H]1[C@@H]1c2ccccc2-c2cncn21 [Example 125a, (4R,5R)-5-((R)-5H-imidazo[5,1-a]isoindol-5-yl)-4,5,6,7-tetrahydrobenzo[d]thiazol-4-ol] |
